Results from ChEMBL document CHEMBL5230104, “Systemic review on B-RafV600E mutation as potential therapeutic target for the treatment of cancer” (Eur J Med Chem, 2020).

How the values were obtained:
A-375 [1] = assay: Antiproliferative activity against human A-375 cells incubated for 48 hrs by MTT assay; assay type: functional, cell-based; settings: A-375, 48 h
HT-29 [2] = assay: Antiproliferative activity against human HT-29 cells incubated for 48 hrs by MTT assay; assay type: functional, cell-based; settings: HT-29, 48 h
PC-3 [3] = assay: Antiproliferative activity against human PC-3 cells incubated for 48 hrs by MTT assay; assay type: functional, cell-based; settings: PC-3, 48 h
A549 [4] = assay: Antiproliferative activity against human A549 cells incubated for 48 hrs by MTT assay; assay type: functional, cell-based; settings: A549, 48 h
[5] = target: T1, Serine/threonine-protein kinase B-raf (Homo sapiens, UniProt P15056, V600E); assay: Inhibition of B-Raf V600E mutant (unknown origin)
Target sequence in this assay (P15056 whole entry V600E): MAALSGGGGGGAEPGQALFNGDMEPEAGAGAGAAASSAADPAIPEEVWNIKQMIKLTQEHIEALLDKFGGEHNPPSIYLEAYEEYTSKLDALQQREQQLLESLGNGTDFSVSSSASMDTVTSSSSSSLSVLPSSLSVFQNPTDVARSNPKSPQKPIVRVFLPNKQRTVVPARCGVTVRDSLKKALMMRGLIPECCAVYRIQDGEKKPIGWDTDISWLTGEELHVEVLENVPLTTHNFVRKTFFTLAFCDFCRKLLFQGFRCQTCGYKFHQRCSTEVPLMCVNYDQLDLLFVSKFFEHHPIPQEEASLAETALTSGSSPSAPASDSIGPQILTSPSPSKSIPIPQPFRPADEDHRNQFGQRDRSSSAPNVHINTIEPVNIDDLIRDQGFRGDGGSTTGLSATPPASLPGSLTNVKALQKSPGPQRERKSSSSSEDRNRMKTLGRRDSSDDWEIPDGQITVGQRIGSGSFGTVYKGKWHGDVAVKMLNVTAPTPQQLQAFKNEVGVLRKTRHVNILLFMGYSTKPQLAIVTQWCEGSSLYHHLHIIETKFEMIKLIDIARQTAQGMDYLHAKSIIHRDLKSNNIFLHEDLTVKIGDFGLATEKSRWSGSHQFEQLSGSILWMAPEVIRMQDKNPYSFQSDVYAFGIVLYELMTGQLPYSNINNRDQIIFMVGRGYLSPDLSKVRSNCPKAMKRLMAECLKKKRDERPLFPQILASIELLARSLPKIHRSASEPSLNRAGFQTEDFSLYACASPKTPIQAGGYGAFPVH

[6] = target: T2, Serine/threonine-protein kinase B-raf (Homo sapiens, UniProt P15056); assay: Inhibition of wild type B-Raf (unknown origin)
T2 sequence (P15056 whole entry): as the sequence (P15056 whole entry V600E) above, with E600V counted along it

[7] = Inhibition of full length GST tagged mouse B-Raf V600E mutant incubated for 1 hr
[8] = target: T2, Serine/threonine-protein kinase B-raf; assay: Inhibition of wild type B-Raf (unknown origin) by radiometric protein kinase-reaction biology assay
[9] = target: T1, Serine/threonine-protein kinase B-raf; assay: Inhibition of B-Raf V600E mutant (unknown origin) by radiometric protein kinase-reaction biology assay
Target sequence in this assay (P15056 2-766 V600E limits assumed): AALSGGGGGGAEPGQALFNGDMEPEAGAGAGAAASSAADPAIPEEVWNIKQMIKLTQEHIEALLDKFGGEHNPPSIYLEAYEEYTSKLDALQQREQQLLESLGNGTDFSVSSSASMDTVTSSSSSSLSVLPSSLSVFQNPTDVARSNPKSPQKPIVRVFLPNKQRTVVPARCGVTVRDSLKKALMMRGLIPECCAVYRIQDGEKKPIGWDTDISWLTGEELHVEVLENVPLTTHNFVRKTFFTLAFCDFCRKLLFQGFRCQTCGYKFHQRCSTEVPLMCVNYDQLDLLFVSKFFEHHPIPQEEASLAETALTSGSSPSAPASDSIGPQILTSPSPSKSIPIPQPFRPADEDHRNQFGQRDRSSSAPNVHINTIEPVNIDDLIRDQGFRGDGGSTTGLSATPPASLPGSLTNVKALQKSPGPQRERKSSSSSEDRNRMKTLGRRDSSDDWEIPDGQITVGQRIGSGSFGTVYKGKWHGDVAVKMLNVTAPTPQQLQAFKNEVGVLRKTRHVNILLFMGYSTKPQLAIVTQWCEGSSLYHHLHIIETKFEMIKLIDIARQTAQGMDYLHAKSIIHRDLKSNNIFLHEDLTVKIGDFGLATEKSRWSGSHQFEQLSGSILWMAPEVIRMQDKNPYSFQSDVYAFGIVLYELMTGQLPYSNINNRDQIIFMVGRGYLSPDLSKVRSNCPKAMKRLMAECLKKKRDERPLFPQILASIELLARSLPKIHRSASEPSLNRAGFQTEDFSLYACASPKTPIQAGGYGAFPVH

A-375 [10] = assay: Antiproliferative activity against human A-375 cells assessed as reduction in cell viability; assay type: functional, cell-based
SK-MEL-28 = assay: Antiproliferative activity against human SK-MEL-28 cells assessed as reduction in cell viability; assay type: functional, cell-based
K562 = assay: Antiproliferative activity against human K562 cells assessed as reduction in cell viability; assay type: functional, cell-based
NCI-H460 = assay: Antiproliferative activity against human NCI-H460 cells assessed as reduction in cell viability; assay type: functional, cell-based
HT-29 [11] = assay: Antiproliferative activity against human HT-29 cells assessed as reduction in cell viability; assay type: functional, cell-based
U-251 = assay: Antiproliferative activity against human U-251 cells assessed as reduction in cell viability; assay type: functional, cell-based
SK-MEL-5 [12] = assay: Antiproliferative activity against human SK-MEL-5 cells assessed as reduction in cell viability; assay type: functional, cell-based
IGROV-1 = assay: Antiproliferative activity against human IGROV-1 cells assessed as reduction in cell viability; assay type: functional, cell-based
UO-31 = assay: Antiproliferative activity against human UO-31 cells assessed as reduction in cell viability; assay type: functional, cell-based
PC-3 [13] = assay: Antiproliferative activity against human PC-3 cells assessed as reduction in cell viability; assay type: functional, cell-based
T47D = assay: Antiproliferative activity against human T47D cells assessed as reduction in cell viability; assay type: functional, cell-based
A-375 [14] = assay: Antiproliferative activity against human A-375 cells assessed as inhibition of cell growth; assay type: functional, cell-based
COLO 205 [15] = assay: Antiproliferative activity against human COLO 205 cells assessed as inhibition of cell growth; assay type: functional, cell-based
SK-MEL-2 = assay: Antiproliferative activity against human SK-MEL-2 cells assessed as inhibition of cell growth; assay type: functional, cell-based
HepG2 [16] = assay: Antiproliferative activity against human HepG2 cells assessed as inhibition of cell growth; assay type: functional, cell-based
[17] = Inhibition of full length GST tagged mouse B-Raf V600E mutant measured after 25 mins by ELISA method
WM 266-4 = assay: Antiproliferative activity against human WM266-4 cells incubated for 24 hrs by MTT assay; assay type: functional, cell-based; settings: WM 266-4, 24 h
A549 [18] = assay: Antiproliferative activity against human A549 cells assessed as cell growth inhibition; assay type: functional, cell-based
SK-OV-3 [19] = assay: Antiproliferative activity against human SK-OV-3 cells; assay type: functional, cell-based
SK-OV-3 [20] = assay: Antitumor activity against human SK-OV-3 cells xenografted in mouse model assessed as reduction in tumor growth measured after 40 days relative to control; assay type: functional; design: scale not given: the % may be the effect or the level left; settings: time 40 day
[21] = target: T1, Serine/threonine-protein kinase B-raf; assay: Inhibition of B-Raf V600E mutant (unknown origin) by ELISA based assay
Target sequence in this assay (P15056 2-766 V600E limits assumed): as above

[22] = target: T2, Serine/threonine-protein kinase B-raf; assay: Inhibition of wild type B-Raf (unknown origin) by ELISA based assay
A-375 [23] = assay: Antiproliferative activity against human A-375 cells assessed as inhibition of cell growth incubated for 72 hrs by MTT assay; assay type: functional, cell-based; settings: A-375, 72 h
HT-29 [24] = assay: Antiproliferative activity against human HT-29 cells assessed as inhibition of cell growth incubated for 72 hrs by MTT assay; assay type: functional, cell-based; settings: HT-29, 72 h
COLO 205 [25] = assay: Antiproliferative activity against human COLO 205 cells assessed as inhibition of cell growth incubated for 72 hrs by MTT assay; assay type: functional, cell-based; settings: COLO 205, 72 h
HepG2 [26] = assay: Antiproliferative activity against human HepG2 cells; assay type: functional, cell-based
MDA-MB-453 = assay: Antiproliferative activity against human MDA-MB-453 cells; assay type: functional, cell-based
SW480 = assay: Antiproliferative activity against human SW480 cells; assay type: functional, cell-based
A-375 [27] = assay: Antiproliferative activity against human A-375 cells; assay type: functional, cell-based
SK-MEL-5 [28] = assay: Antiproliferative activity against human SK-MEL-5 cells; assay type: functional, cell-based
A-375 [29] = assay: Antiproliferative activity against human A-375 cells assessed as inhibition of cell viability; assay type: functional, cell-based
A-375 [30] = assay: Antiproliferative activity against human A-375 cells assessed as cell growth inhibition; assay type: functional, cell-based
[31] = Antiproliferative activity against human WM1361 cells assessed as cell growth inhibition; assay type: functional, cell-based

Cn1ncc2c(Oc3ccc(NC(=O)Nc4ccc(Cl)c(C(F)(F)F)c4)cc3)ncnc21 showed an IC50 (A-375 [1]) of 12200 nM, an IC50 (HT-29 [2]) of 14700 nM and an IC50 (PC-3 [3]) of 23400 nM. It also gave an IC50 (A549 [4]) of 12500 nM.
For O=S(=O)(Nc1ccc(F)c(Nc2ccccc2-c2ncnc3[nH]cnc23)c1F)c1ccoc1, the IC50 [5] was 2 nM and the IC50 [6] was 2.2 nM.
Molecule Cc1ccc(NC(=S)NNC(=O)CNc2nc(-c3ccccc3)c(-c3ccccc3)s2)cc1 has an IC50 [7] of 1300 nM.
O=S(=O)(NCCCNc1nccc(-c2c(-c3cccc(F)c3)nc3occn23)n1)c1ccccc1 gave an IC50 [8] of 172 nM, an IC50 [9] of 92 nM and an IC50 (A-375 [10]) of 9810 nM. For the same molecule, the IC50 (SK-MEL-28) was 11200 nM, the IC50 (K562) was 56300 nM and the IC50 (NCI-H460) was 18500 nM. It also gave an IC50 (HT-29 [11]) of 51800 nM, an IC50 (U-251) of 7380 nM and an IC50 (SK-MEL-5 [12]) of 28400 nM. The IC50 (IGROV-1) was 40200 nM, the IC50 (UO-31) was 39800 nM and the IC50 (PC-3 [13]) was 38900 nM. It also gave an IC50 (T47D) of 53600 nM.
For Cc1ccc(C(=O)Nc2ccc(Cl)c(C(F)(F)F)c2)cc1NC(=O)C1(c2ccnc(NCCN3CCN(C)CC3)n2)CC1, the IC50 [5] was 12.6 nM, the IC50 [6] was 19.7 nM and the IC50 (A-375 [14]) was 1070 nM. The IC50 (COLO 205 [15]) was 1920 nM, the IC50 (SK-MEL-2) was 580 nM and the IC50 (HepG2 [16]) was 2460 nM.
In the case of Oc1ccccc1C1CC(c2ccc(Cl)c(Cl)c2)=NN1c1ccccc1 (centres undefined), the IC50 [17] is reported as 150 nM and the IC50 (WM 266-4) is reported as 1750 nM.
With Cc1ccc(C2=NN=C(NC(=S)Nc3ccc(Cl)cc3)SC2)cc1 the IC50 [5] was 180 nM and the IC50 (A549 [18]) was 320 nM.
For COC[C@@H]1C[C@H]2[C@@H]3CCc4cc(O)ccc4[C@H]3CC[C@]2(C)C1NN (some centres undefined), the IC50 [5] was 41 nM, the IC50 [6] was 4320 nM and the IC50 (SK-OV-3 [19]) was 4230 nM. It also gave an Activity (SK-OV-3 [20]) of 93.61%.
With CCC[S+]([O-])Nc1ccc(F)c(Cc2c[nH]c3nc(N)n(C)c(=O)c23)c1F (centres undefined) the IC50 [21] was 50 nM, the IC50 [22] was 440 nM and the IC50 (A-375 [23]) was 800 nM. For the same molecule, the IC50 (HT-29 [24]) was 550 nM and the IC50 (COLO 205 [25]) was 1640 nM.
CNC(=O)c1cc(Cn2ccc3cc(NC(=O)Nc4ccc(Cl)c(C(F)(F)F)c4)ccc32)ccn1 showed an IC50 [5] of 510 nM, an IC50 (HepG2 [26]) of 6630 nM and an IC50 (MDA-MB-453) of 21900 nM. The IC50 (SW480) was 13500 nM.
Molecule Cc1nn(-c2ccccc2)c(Cl)c1Nc1ccc(C(F)(F)F)cc1 has an IC50 [5] of 66 nM and an IC50 (A-375 [27]) of 810 nM.
O=S(=O)(NCCCNc1cc(-c2cn(-c3ccccc3)nc2-c2cccc(O)c2)ccn1)c1ccc(Cl)cc1 showed an IC50 [5] of 1160 nM, an IC50 [6] of 4870 nM and an IC50 (SK-MEL-5 [28]) of 1270 nM.
In the case of CC(C)(C)c1cc(NC(=O)Nc2ccc(Oc3ccnc4[nH]c(=O)cnc34)cc2F)n(-c2ccccc2)n1, the IC50 [6] is reported as 100 nM and the IC50 (A-375 [29]) is reported as 12000 nM.
COc1ccc(-n2cc(NC(=O)c3cccc(NC(=O)Nc4ccc(Cl)c(C(F)(F)F)c4)c3)cn2)cc1 gave an IC50 [5] of 35 nM, an IC50 [6] of 220 nM and an IC50 (A-375 [30]) of 390 nM. The IC50 [31] was 7120 nM.
